Source: US10294202B2, “Pyrrolidinones as herbicides” (FMC Corporation, priority 2013, dated 2019)
Where two headings read alike, the source gives them in different places.

Legend:
[1] = system: wheat; experiment: Test A pre-/postemergence herbicide test; assay type: in vivo, Triticum aestivum; details: for Wheat plant response rating: Preemergence, visual rating on 0 to 100 scale (0 no effect, 100 complete control)
Method in brief: (§1)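 Seeds sown in loam soil/sand blend received a preemergence directed soil spray of test chemical in non-phytotoxic solvent with surfactant; postemergence plants (2–10 cm, one- to two-leaf stage) were sprayed with the same formulation. After about 10 days in greenhouse, injury was rated visually versus untreated controls, 0 (no effect) to 100 (complete control).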

[2] = system: sedge, umbrella; experiment: Test B flooded paddy test; assay type: in vivo, Cyperus difformis; details: 250 g ai/ha, Flood; scale of 0 to 100 where 0 is no effect and 100 is complete control
Method in brief: (§2)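 Treatment was made at the 2-leaf stage by dosing the standing floodwater, kept 3 cm above soil level for the whole test. Greenhouse exposure lasted 13 to 15 days. Response is a visual percent rating relative to controls, where a dash indicates no test result.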

[3] = system: pigweed; experiment: Test A pre-/postemergence herbicide test; assay type: in vivo, Amaranthus retroflexus; details: for Pigweed plant response rating: Preemergence, visual rating on 0 to 100 scale (0 no effect, 100 complete control)
Method in brief: as §1

[4] = system: velvetleaf; experiment: Test A pre-/postemergence herbicide test; assay type: in vivo, Abutilon theophrasti; details: for Velvetleaf plant response rating: Preemergence, visual rating on 0 to 100 scale (0 no effect, 100 complete control)
Method in brief: as §1

[5] = system: corn; experiment: Test A pre-/postemergence herbicide test; assay type: in vivo, Zea mays; details: for Corn plant response rating: Preemergence, visual rating on 0 to 100 scale (0 no effect, 100 complete control)
Method in brief: as §1

[6] = system: rice; experiment: Test B flooded paddy test; assay type: in vivo, Oryza sativa; details: 250 g ai/ha, Flood; scale of 0 to 100 where 0 is no effect and 100 is complete control
Method in brief: as §2

[7] = system: ducksalad; experiment: Test B flooded paddy test; assay type: in vivo, Heteranthera limosa; details: 250 g ai/ha, Flood; scale of 0 to 100 where 0 is no effect and 100 is complete control
Method in brief: as §2

[8] = system: giant foxtail; experiment: Test A pre-/postemergence herbicide test; assay type: in vivo, Setaria faberii; details: for Foxtail, Giant plant response rating: Preemergence, visual rating on 0 to 100 scale (0 no effect, 100 complete control)
Method in brief: as §1

[9] = system: barnyardgrass; experiment: Test A pre-/postemergence herbicide test; assay type: in vivo, Echinochloa crus-galli; details: for Barnyardgrass plant response rating: Preemergence, visual rating on 0 to 100 scale (0 no effect, 100 complete control)
Method in brief: as §1

[10] = system: barnyardgrass; experiment: Test B flooded paddy test; assay type: in vivo, Echinochloa crus-galli; details: 250 g ai/ha, Flood; scale of 0 to 100 where 0 is no effect and 100 is complete control
Method in brief: as §2

[11] = system: crabgrass, large; experiment: Test A pre-/postemergence herbicide test; assay type: in vivo, Digitaria sanguinalis; details: for Crabgrass, Large plant response rating: Preemergence, visual rating on 0 to 100 scale (0 no effect, 100 complete control)
Method in brief: as §1

[12] = system: morningglory; experiment: Test A pre-/postemergence herbicide test; assay type: in vivo, Ipomoea spp.; details: for Morningglory plant response rating: Preemergence, visual rating on 0 to 100 scale (0 no effect, 100 complete control)
Method in brief: as §1

[13] = Postemergence, 125 g ai/ha, 0 to 100 scale, 0 no effect, 100 complete control
[14] = Postemergence, 500 g ai/ha, 0 to 100 scale (0 no effect, 100 complete control)
[15] = preemergence, 500 g ai/ha, 0 to 100 scale
[16] = preemergence, 500 g ai/ha, 0 to 100 scale (0 no effect, 100 complete control)

O=C1NCC(c2ccc(F)c(F)c2)C1C(=O)Nc1cccc(F)c1C(F)(F)F (stereo not drawn) [Compound 67]
Plant response rating, Wheat [1, 13]: 0 | Plant response rating, Wheat [1, 14]: 0 | Wheat plant response rating ([1]; 125 g ai/ha): 0 | Plant response rating, Wheat [1, 15]: 0 | Plant response rating, Sedge, Umbrella [2]: 50 | Plant response rating, Pigweed [3, 13]: 0 | Plant response rating, Pigweed [3, 14]: 20 | Pigweed plant response rating ([3]; 125 g ai/ha): 0 | Plant response rating, Pigweed [3, 15]: 0 | Plant response rating, Velvetleaf [4, 13]: 0 | Plant response rating, Velvetleaf [4, 14]: 0 | Velvetleaf plant response rating ([4]; 125 g ai/ha): 0 | Plant response rating, Velvetleaf [4, 15]: 0 | Plant response rating, Corn [5, 13]: 0 | Plant response rating, Corn [5, 14]: 0 | Corn plant response rating ([5]; 125 g ai/ha): 0 | Plant response rating, Corn [5, 15]: 0 | Plant response rating, Rice [6]: 0 | Plant response rating, Ducksalad [7]: 70 | Plant response rating, Foxtail, Giant [8, 13]: 80 | Plant response rating, Foxtail, Giant [8, 14]: 90 | Foxtail, Giant plant response rating ([8]; 125 g ai/ha): 80 | Plant response rating, Foxtail, Giant [8, 15]: 90 | Plant response rating, Barnyardgrass [9, 13]: 40 | Plant response rating, Barnyardgrass [9, 14]: 60 | Barnyardgrass plant response rating ([9]; 125 g ai/ha): 30 | Plant response rating, Barnyardgrass [9, 16]: 70 | Plant response rating, Barnyardgrass [10]: 0 | Plant response rating, Crabgrass, Large [11, 13]: 50 | Plant response rating, Crabgrass, Large [11, 14]: 90 | Crabgrass, Large plant response rating ([11]; 125 g ai/ha): 90 | Plant response rating, Crabgrass, Large [11, 15]: 90 | Plant response rating, Morningglory [12, 13]: 0 | Plant response rating, Morningglory [12, 14]: 0 | Morningglory plant response rating ([12]; 125 g ai/ha): 0 | Plant response rating, Morningglory [12, 15]: 0

CC(C)(C)OC(=O)Nc1cccc(C2CNC(=O)C2C(=O)Nc2cccc(F)c2F)c1 (stereo not drawn) [Compound 70]
Plant response rating, Wheat [1, 13]: 0 | Plant response rating, Wheat [1, 14]: 40 | Wheat plant response rating ([1]; 125 g ai/ha): 0 | Plant response rating, Wheat [1, 15]: 20 | Plant response rating, Sedge, Umbrella [2]: 70 | Plant response rating, Pigweed [3, 13]: 0 | Plant response rating, Pigweed [3, 14]: 20 | Pigweed plant response rating ([3]; 125 g ai/ha): 0 | Plant response rating, Pigweed [3, 15]: 0 | Plant response rating, Velvetleaf [4, 13]: 0 | Plant response rating, Velvetleaf [4, 14]: 20 | Velvetleaf plant response rating ([4]; 125 g ai/ha): 0 | Plant response rating, Velvetleaf [4, 15]: 0 | Plant response rating, Corn [5, 13]: 0 | Plant response rating, Corn [5, 14]: 0 | Corn plant response rating ([5]; 125 g ai/ha): 0 | Plant response rating, Corn [5, 15]: 0 | Plant response rating, Rice [6]: 35 | Plant response rating, Ducksalad [7]: 85 | Plant response rating, Foxtail, Giant [8, 13]: 20 | Plant response rating, Foxtail, Giant [8, 14]: 80 | Foxtail, Giant plant response rating ([8]; 125 g ai/ha): 70 | Plant response rating, Foxtail, Giant [8, 15]: 90 | Plant response rating, Barnyardgrass [9, 13]: 20 | Plant response rating, Barnyardgrass [9, 14]: 60 | Barnyardgrass plant response rating ([9]; 125 g ai/ha): 20 | Plant response rating, Barnyardgrass [9, 16]: 90 | Plant response rating, Barnyardgrass [10]: 40 | Plant response rating, Crabgrass, Large [11, 13]: 20 | Plant response rating, Crabgrass, Large [11, 14]: 70 | Crabgrass, Large plant response rating ([11]; 125 g ai/ha): 80 | Plant response rating, Crabgrass, Large [11, 15]: 90 | Plant response rating, Morningglory [12, 13]: 0 | Plant response rating, Morningglory [12, 14]: 0 | Morningglory plant response rating ([12]; 125 g ai/ha): 0 | Plant response rating, Morningglory [12, 15]: 0

O=C1NCC(c2ccc(F)c(Cl)c2)C1C(=O)Nc1ccccc1C(F)(F)F (stereo not drawn) [Compound 74, 4-(3-chloro-4-fluorophenyl)-2-oxo-N-[2-(trifluoromethyl)phenyl]-3-pyrrolidinecarboxamide]
Wheat plant response rating ([1]; 125 g ai/ha): 0 | plant injury at 125 g/ha ([1]; Triticum aestivum, post-emergence, 240 h, Postemergence, 125 g ai/ha, 0 to 100 scale, 0 no effect, 100 complete control, read-out: Plant response rating, Wheat): 0% | plant injury at 500 g/ha ([1]; Triticum aestivum, post-emergence, 240 h, Postemergence, 500 g ai/ha, 0 to 100 scale (0 no effect, 100 complete control), read-out: Plant response rating, Wheat): 60% | plant injury at 500 g/ha ([1]; Triticum aestivum, pre-emergence, 240 h, preemergence, 500 g ai/ha, 0 to 100 scale, read-out: Plant response rating, Wheat): 0% | Plant response rating, Sedge, Umbrella [2]: 0 | pest or weed control at 125 g/ha ([3]; Amaranthus retroflexus, post-emergence, 240 h, Postemergence, 125 g ai/ha, 0 to 100 scale, 0 no effect, 100 complete control, read-out: Plant response rating, Pigweed): 0% | pest or weed control at 500 g/ha ([3]; Amaranthus retroflexus, post-emergence, 240 h, Postemergence, 500 g ai/ha, 0 to 100 scale (0 no effect, 100 complete control), read-out: Plant response rating, Pigweed): 0% | pest or weed control at 500 g/ha ([3]; Amaranthus retroflexus, pre-emergence, 240 h, preemergence, 500 g ai/ha, 0 to 100 scale, read-out: Plant response rating, Pigweed): 50% | Pigweed plant response rating ([3]; 125 g ai/ha): 0 | pest or weed control at 125 g/ha ([4]; Abutilon theophrasti, post-emergence, 240 h, Postemergence, 125 g ai/ha, 0 to 100 scale, 0 no effect, 100 complete control, read-out: Plant response rating, Velvetleaf): 30% | pest or weed control at 500 g/ha ([4]; Abutilon theophrasti, post-emergence, 240 h, Postemergence, 500 g ai/ha, 0 to 100 scale (0 no effect, 100 complete control), read-out: Plant response rating, Velvetleaf): 50% | pest or weed control at 500 g/ha ([4]; Abutilon theophrasti, pre-emergence, 240 h, preemergence, 500 g ai/ha, 0 to 100 scale, read-out: Plant response rating, Velvetleaf): 0% | Velvetleaf plant response rating ([4]; 125 g ai/ha): 0 | Corn plant response rating ([5]; 125 g ai/ha): 0 | Corn plant response rating (crop injury, 0 = no effect, 100 = complete kill) at 125 g/ha ([5]; Zea mays, post-emergence, 240 h, Postemergence, 125 g ai/ha, 0 to 100 scale, 0 no effect, 100 complete control): 0% | Corn plant response rating (crop injury, 0 = no effect, 100 = complete kill) at 500 g/ha ([5]; Zea mays, post-emergence, 240 h, Postemergence, 500 g ai/ha, 0 to 100 scale (0 no effect, 100 complete control)): 50% | Corn plant response rating (crop injury, 0 = no effect, 100 = complete kill) at 500 g/ha ([5]; Zea mays, pre-emergence, 240 h, preemergence, 500 g ai/ha, 0 to 100 scale): 0% | Plant response rating, Rice [6]: 0 | Plant response rating, Ducksalad [7]: 90 | Foxtail, Giant plant response rating ([8]; 125 g ai/ha): 90 | pest or weed control at 125 g/ha ([8]; Setaria faberi, post-emergence, 240 h, Postemergence, 125 g ai/ha, 0 to 100 scale, 0 no effect, 100 complete control, read-out: Plant response rating, Foxtail, Giant): 80% | pest or weed control at 500 g/ha ([8]; Setaria faberi, post-emergence, 240 h, Postemergence, 500 g ai/ha, 0 to 100 scale (0 no effect, 100 complete control), read-out: Plant response rating, Foxtail, Giant): 90% | pest or weed control at 500 g/ha ([8]; Setaria faberi, pre-emergence, 240 h, preemergence, 500 g ai/ha, 0 to 100 scale, read-out: Plant response rating, Foxtail, Giant): 90% | pest or weed control at 125 g/ha ([9]; Echinochloa crus-galli, post-emergence, 240 h, Postemergence, 125 g ai/ha, 0 to 100 scale, 0 no effect, 100 complete control, read-out: Plant response rating, Barnyardgrass): 60% | pest or weed control at 500 g/ha ([9]; Echinochloa crus-galli, post-emergence, 240 h, Postemergence, 500 g ai/ha, 0 to 100 scale (0 no effect, 100 complete control), read-out: Plant response rating, Barnyardgrass): 80% | pest or weed control at 500 g/ha ([9]; Echinochloa crus-galli, pre-emergence, 240 h, preemergence, 500 g ai/ha, 0 to 100 scale (0 no effect, 100 complete control), read-out: Plant response rating, Barnyardgrass): 90% | Barnyardgrass plant response rating ([9]; 125 g ai/ha): 60 | Plant response rating, Barnyardgrass [10]: 0 | pest or weed control at 125 g/ha ([11]; Digitaria sanguinalis, post-emergence, 240 h, Postemergence, 125 g ai/ha, 0 to 100 scale, 0 no effect, 100 complete control, read-out: Plant response rating, Crabgrass, Large): 80% | pest or weed control at 500 g/ha ([11]; Digitaria sanguinalis, post-emergence, 240 h, Postemergence, 500 g ai/ha, 0 to 100 scale (0 no effect, 100 complete control), read-out: Plant response rating, Crabgrass, Large): 90% | pest or weed control at 500 g/ha ([11]; Digitaria sanguinalis, pre-emergence, 240 h, preemergence, 500 g ai/ha, 0 to 100 scale, read-out: Plant response rating, Crabgrass, Large): 90% | Crabgrass, Large plant response rating ([11]; 125 g ai/ha): 90 | pest or weed control at 125 g/ha ([12]; Ipomoea, post-emergence, 240 h, Postemergence, 125 g ai/ha, 0 to 100 scale, 0 no effect, 100 complete control, read-out: Plant response rating, Morningglory): 0% | pest or weed control at 500 g/ha ([12]; Ipomoea, post-emergence, 240 h, Postemergence, 500 g ai/ha, 0 to 100 scale (0 no effect, 100 complete control), read-out: Plant response rating, Morningglory): 0% | pest or weed control at 500 g/ha ([12]; Ipomoea, pre-emergence, 240 h, preemergence, 500 g ai/ha, 0 to 100 scale, read-out: Plant response rating, Morningglory): 0% | Morningglory plant response rating ([12]; 125 g ai/ha): 0
